According to patent US12673924B2, “Valiolamine derivatives as glucosidase inhibitors” (Emergent Product Development Gaithersburg Inc., priority 2021, dated 2026):

What was measured:
rat sucrase = biological target: T1, rat sucrase (Rattus norvegicus, UniProt P23739); experiment: Intestinal alpha-glucosidase assay, sucrose substrate; type: biochemical; conditions: alpha-glucosidase from intestinal rat powder
T1 construct: partially purified alpha-glucosidase from intestinal rat powder; from tissue; host or cells: rat intestinal powder
Experimental: Intestinal alpha-glucosidases (rat maltase and sucrase): Intestinal alpha-glucosidases act upon 1,4-alpha-glucoside bonds, breaking down disaccharides to glucose. To perform this assay, partially purified alpha-glucosidase from intestinal rat powder was incubated for 60 minutes at 37° C. with multiple dilutions of test compounds. Maltose or Sucrose respectively was then introduced as substrate to the mixture and incubated for 30 minutes at 37° C. The reaction was stopped by a 5-minute incubation at 90° C. and the resultant glucose production is detected using Sigma's Glucose GO Kit. Percent inhibition was then plotted as a function of concentration for each test compound. The IC50 was determined using a 4-PL curve fit and serves as the measure of relative inhibition of each test compound (see Table 4). Table 4 summarizes the results of IC50s for each molecule against each tested glucosidase enzyme.

recombinant human GBA = biological target: T2, recombinant human GBA (Homo sapiens, UniProt P04062); experiment: Beta-glucocerebrosidase (GBA) inhibition assay; type: biochemical; conditions: 4-methylumbelliferyl-beta-D-pyranoside substrate, 4-PL curve fit
T2 construct: purchased
T2 sequence (P04062 40-536): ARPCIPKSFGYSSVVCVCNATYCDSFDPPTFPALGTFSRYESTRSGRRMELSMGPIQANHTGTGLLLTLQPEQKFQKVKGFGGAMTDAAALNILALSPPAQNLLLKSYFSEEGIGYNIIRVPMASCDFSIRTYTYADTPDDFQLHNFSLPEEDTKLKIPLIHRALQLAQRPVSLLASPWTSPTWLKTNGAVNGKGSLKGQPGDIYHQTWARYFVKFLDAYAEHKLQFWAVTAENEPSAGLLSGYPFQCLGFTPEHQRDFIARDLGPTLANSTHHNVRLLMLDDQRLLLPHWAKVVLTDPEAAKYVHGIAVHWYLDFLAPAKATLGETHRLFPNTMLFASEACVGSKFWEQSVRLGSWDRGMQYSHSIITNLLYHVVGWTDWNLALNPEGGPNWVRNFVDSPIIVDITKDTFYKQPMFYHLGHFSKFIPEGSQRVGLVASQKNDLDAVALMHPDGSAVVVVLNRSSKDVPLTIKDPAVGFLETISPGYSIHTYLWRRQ
Experimental: Beta-glucocerebrosidase (GBA, also referred to glucosylceramidase): To analyze inhibitory effects of a test compound, commercially available recombinant human GBA was incubated with multiple dilutions of test compound for 60 minutes at 37° C. 4-methylumbelliferyl-beta-D-pyranoside was then introduced to the mixture as substrate. Following incubation for 60 minutes at 37° C., 1,4-methyllumbelliferone was generated, and the reaction was stopped with the stop solution (0.5 M glycine; 0.3 M NaOH, pH 10). 1,4-methyllumbelliferone was detected by fluorescence (excitation at 365 nm, emission at 440 nm). Relative fluorescence is compared to untreated enzymatic activity and test compound concentration is then plotted as a function of percent inhibition. The IC50 was determined using a 4-PL curve fit as the measure of relative inhibitory activity of each test compound (see Table 4).

T1 sequence (P23739 whole entry): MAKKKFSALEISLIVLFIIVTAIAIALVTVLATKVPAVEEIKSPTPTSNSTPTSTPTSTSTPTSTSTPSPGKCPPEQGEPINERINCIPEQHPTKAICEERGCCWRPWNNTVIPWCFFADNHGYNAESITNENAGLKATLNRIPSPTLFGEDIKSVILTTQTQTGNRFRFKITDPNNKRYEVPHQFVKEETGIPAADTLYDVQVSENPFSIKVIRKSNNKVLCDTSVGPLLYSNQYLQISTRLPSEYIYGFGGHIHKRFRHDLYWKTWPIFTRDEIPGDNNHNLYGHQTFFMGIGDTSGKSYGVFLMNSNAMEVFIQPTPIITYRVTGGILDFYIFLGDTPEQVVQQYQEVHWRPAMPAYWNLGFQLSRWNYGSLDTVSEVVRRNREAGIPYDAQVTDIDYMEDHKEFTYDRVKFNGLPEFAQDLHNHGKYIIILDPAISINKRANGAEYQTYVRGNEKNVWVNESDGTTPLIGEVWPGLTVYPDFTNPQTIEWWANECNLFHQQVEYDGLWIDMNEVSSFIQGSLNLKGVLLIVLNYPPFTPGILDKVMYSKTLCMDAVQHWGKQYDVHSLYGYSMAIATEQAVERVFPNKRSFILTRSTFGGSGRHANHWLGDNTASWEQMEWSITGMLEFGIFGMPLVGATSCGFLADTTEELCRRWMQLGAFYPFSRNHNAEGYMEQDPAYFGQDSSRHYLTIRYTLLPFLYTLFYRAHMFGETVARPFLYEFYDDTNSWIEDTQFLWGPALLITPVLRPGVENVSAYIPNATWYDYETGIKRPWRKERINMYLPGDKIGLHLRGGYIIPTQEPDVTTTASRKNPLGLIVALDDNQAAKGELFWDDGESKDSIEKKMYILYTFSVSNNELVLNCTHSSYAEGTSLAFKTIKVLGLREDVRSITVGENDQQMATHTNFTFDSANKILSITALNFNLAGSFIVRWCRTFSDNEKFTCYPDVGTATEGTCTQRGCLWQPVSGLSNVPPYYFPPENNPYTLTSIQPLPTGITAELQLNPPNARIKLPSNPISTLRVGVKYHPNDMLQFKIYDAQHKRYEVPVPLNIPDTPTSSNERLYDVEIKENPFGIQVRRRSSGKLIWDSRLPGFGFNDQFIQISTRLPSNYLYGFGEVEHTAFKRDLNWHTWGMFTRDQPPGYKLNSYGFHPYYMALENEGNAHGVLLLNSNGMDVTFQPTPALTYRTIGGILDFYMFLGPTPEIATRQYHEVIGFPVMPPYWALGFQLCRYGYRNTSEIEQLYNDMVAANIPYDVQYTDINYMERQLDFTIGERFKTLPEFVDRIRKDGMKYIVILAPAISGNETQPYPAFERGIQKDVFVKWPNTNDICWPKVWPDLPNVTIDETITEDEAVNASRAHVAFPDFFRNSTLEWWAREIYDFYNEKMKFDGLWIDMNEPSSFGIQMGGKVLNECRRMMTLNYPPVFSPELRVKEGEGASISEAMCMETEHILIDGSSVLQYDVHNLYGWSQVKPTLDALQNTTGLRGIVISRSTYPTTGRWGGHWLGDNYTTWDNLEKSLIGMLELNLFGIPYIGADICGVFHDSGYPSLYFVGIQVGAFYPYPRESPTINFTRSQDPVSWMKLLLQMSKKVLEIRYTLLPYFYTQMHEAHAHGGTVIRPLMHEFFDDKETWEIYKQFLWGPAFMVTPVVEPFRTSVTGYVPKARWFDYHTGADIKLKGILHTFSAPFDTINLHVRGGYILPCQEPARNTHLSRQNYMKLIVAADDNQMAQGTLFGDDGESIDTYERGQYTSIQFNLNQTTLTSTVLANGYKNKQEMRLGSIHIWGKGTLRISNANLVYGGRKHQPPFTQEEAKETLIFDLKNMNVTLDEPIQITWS

`[N-]=[N+]=Nc1ccc(NCCCCCCN[C@H]2C[C@](O)(CO)[C@@H](O)[C@H](O)[C@H]2O)c([N+](=O)[O-])c1` [Compound 2, (1S,2S,3R,4S,5S)-5-((6-((4-azido-2-nitrophenyl)amino)hexyl)amino)-1-(hydroxymethyl)cyclohexane-1,2,3,4-tetraol] showed an IC50 (rat sucrase) of under 0.0333 µM and an IC50 (recombinant human GBA) of 139 µM.
Compound `COCCCCCCCCCN[C@H]1C[C@](O)(CO)[C@@H](O)[C@H](O)[C@H]1O` [Compound 3, (1S,2S,3R,4S,5S)-1-(hydroxymethyl)-5-((9-methoxynonyl)amino)cyclohexane-1,2,3,4-tetraol] has an IC50 (rat sucrase) of 0.116 µM and an IC50 (recombinant human GBA) of over 1000 µM.
For `O=[N+]([O-])c1cc(-n2cnnn2)ccc1NCCCCCCN[C@H]1C[C@](O)(CO)[C@@H](O)[C@H](O)[C@H]1O` [Compound 4, (1S,2S,3R,4S,5S)-1-(hydroxymethyl)-5-((6-((2-nitro-4-(1H-tetrazol-1-yl)phenyl)amino)hexyl)amino)cyclohexane-1,2,3,4-tetraol], the IC50 (rat sucrase) was 2.93 µM and the IC50 (recombinant human GBA) was over 1000 µM.
`O=[N+]([O-])c1cc(-n2nccn2)ccc1NCCCCCCN[C@H]1C[C@](O)(CO)[C@@H](O)[C@H](O)[C@H]1O` [Compound 5, (1S,2S,3R,4S,5S)-1-(hydroxymethyl)-5-((6-((2-nitro-4-(2H-1,2,3-triazol-2-yl)phenyl)amino)hexyl)amino)cyclohexane-1,2,3,4-tetraol] showed an IC50 (rat sucrase) of 0.0342 µM and an IC50 (recombinant human GBA) of 143 µM.
`O=[N+]([O-])c1cc(-n2ccnn2)ccc1NCCCCCCN[C@H]1C[C@](O)(CO)[C@@H](O)[C@H](O)[C@H]1O` [Compound 6, (1S,2S,3R,4S,5S)-1-(hydroxymethyl)-5-((6-((2-nitro-4-(1H-1,2,3-triazol-1-yl)phenyl)amino)hexyl)amino)cyclohexane-1,2,3,4-tetraol] gave an IC50 (rat sucrase) of 0.0674 µM and an IC50 (recombinant human GBA) of 776 µM.
`O=[N+]([O-])c1cc(-c2ncccn2)ccc1NCCCCCCN[C@H]1C[C@](O)(CO)[C@@H](O)[C@H](O)[C@H]1O` [Compound 7, (1S,2S,3R,4S,5S)-1-(hydroxymethyl)-5-((6-((2-nitro-4-(pyrimidin-2-yl)phenyl)amino)hexyl)amino)cyclohexane-1,2,3,4-tetraol] showed an IC50 (recombinant human GBA) of over 1000 µM.
`[N-]=[N+]=Nc1ccc(NCCCCN[C@H]2C[C@](O)(CO)[C@@H](O)[C@H](O)[C@H]2O)c([N+](=O)[O-])c1` [Compound 8, (1S,2S,3R,4S,5S)-5-((4-((4-azido-2-nitrophenyl)amino)butyl)amino)-1-(hydroxymethyl)cyclohexane-1,2,3,4-tetraol] gave an IC50 (recombinant human GBA) of over 1000 µM.
Compound `[N-]=[N+]=Nc1ccc(NCCCCCN[C@H]2C[C@](O)(CO)[C@@H](O)[C@H](O)[C@H]2O)c([N+](=O)[O-])c1` [Compound 9, (1S,2S,3R,4S,5S)-5-((5-((4-azido-2-nitrophenyl)amino)pentyl)amino)-1-(hydroxymethyl)cyclohexane-1,2,3,4-tetraol] has an IC50 (rat sucrase) of 0.0112 µM and an IC50 (recombinant human GBA) of 103 µM.
Compound `[N-]=[N+]=Nc1ccc(NCCOCCN[C@H]2C[C@](O)(CO)[C@@H](O)[C@H](O)[C@H]2O)c([N+](=O)[O-])c1` [Compound 10, (1S,2S,3R,4S,5S)-5-((2-(2-((4-azido-2-nitrophenyl)amino)ethoxy)ethyl)amino)-1-(hydroxymethyl)cyclohexane-1,2,3,4-tetraol] has an IC50 (recombinant human GBA) of over 1000 µM.
In the case of `O=C(O)CCCCN[C@H]1C[C@](O)(CO)[C@@H](O)[C@H](O)[C@H]1O` [Compound 11, 5-(((1S,2S,3R,4S,5S)-2,3,4,5-tetrahydroxy-5-(hydroxymethyl)cyclohexyl)amino)pentanoic acid], the IC50 (rat sucrase) is reported as 3.16 µM and the IC50 (recombinant human GBA) is reported as over 1000 µM.
With `N[C@H]1C[C@](O)(CO)[C@@H](O)[C@H](O)[C@H]1O` [Valiolamine] the IC50 (rat sucrase) was 0.334 µM and the IC50 (recombinant human GBA) was over 1000 µM.
